The values that follow come from patent US4456597A.

Some results are limits rather than exact numbers.

Holding throughout (type): cell-based
Common to all, as to conditions: 1.0 μg/ml

For test [1], the system named is Human (spleen). As to the kind of experiment: IF induction in vitro, human spleen (Table 6). The procedure:
(§1) A spleen cell suspension (10^7 cells/ml) was prepared by the method of hereinafter described Experiment 1 using an Eagle MEM medium (commercial product of Nissui Seiyaku K.K., Tokyo) containing a 10% calf serum (which was replaced by a 10% fetal cattle serum in the cases of human tests), each of which fraction (1 ml) was added with a given concetration of the sample and incubated overnight at a given temperature. The cultured liquor was centrifuged to separate a supernatant which was used for determining the IF activity induced. In the case of humans, the fresh spleen was collected from a person (adult deceased by external wounds) and used for the preparation of a leucocytes suspension on each occasion, and also blood was collected from the vein at the upper arm of a person (adult), from which the serum was separated to use for the preparation of a serum suspension on each occasion.
(§2) The IF activities were determined by using the cells shown in Table 5 in a similar manner to that hereinafter described in Experiment 1.

Test [2] relates to spleen cell suspension. As to the kind of experiment: IF induction in vitro, mouse (Table 6). How it is done:
as §1, §2

Test [3] concerns spleen cell suspension. As to the kind of experiment: IF induction in vitro, rabbit (Table 6). How it is done:
as §1, §2

Consider Poly I:C, for which the results for the “IF activity in vitro (Control)” value in test [1], in test [2] and in test [3] were below 10, 80 and 190, respectively.
